The source of these data is PMC4166484 (European journal of medicinal chemistry, 2011).

Like-named read-outs stand apart in the source and are kept apart here.

Data set [1] deals with A498. The data set is classed as cell-based. Particulars: Homo sapiens, A498, 48 h.
A short description of data set [2]: Pharmacokinetic study, intraperitoneal. Particulars: male, Sprague-Dawley, rat, plasma, ip, 20 mg/kg. The data set is classed as in vivo, Sprague-Dawley rats.
Data set [3] concerns SKBR-3 cells. Briefly: Cell cycle distribution by FACS. The data set is classed as cell-based. The conditions noted are these: SKBR-3, 0.5 μM and 5 μM, after 12h.
Data set [4] deals with 60 human tumor cell lines. In words: NCI DTP screen against 60 human tumor cell lines. The data set is classed as cell-based. Particulars: read-out: IC50s, growth of a broad range of cancer cell lines.
The subject of data set [5] is SKBR-3 breast cancer cell. Briefly: MTT cell viability, SKBR-3 breast cancer cell growth. In kind it is cell-based.

As to `Cc1ccc(C)c(COc2cc(NC(=O)c3ccc4c(c3)OCO4)ccc2N(C)S(C)(=O)=O)c1` [Compound 10, Benzo[1,3]dioxole-5-carboxylic acid [3-(2,5-dimethyl-benzyloxy)-4-(methanesulfonyl-methyl-amino)-phenyl]-amide], in data set [1], halving of growth (GI50) required 122 nM. For the same compound, the AUC(0-t) was determined as 22600 ng·h/mL in data set [2] (Rat 2, 20mg/kg i.p.) and 9720 ng·h/mL in data set [2] (Rat 3, 20mg/kg i.p.). Further, the MRT last in data set [2] (MRT(0-t), Rat 3, 20mg/kg i.p.) was found to be 5.62 h. The half-life in data set [2] (T1/2, Rat 1, 20mg/kg i.p.) was 2.44 h; in data set [2] (T1/2, Rat 2, 20mg/kg i.p.), 3.71 h; in data set [2] (T1/2, Rat 3, 20mg/kg i.p.), 3.21 h. The cell cycle effect entry in data set [3] was “accumulated at G2/M and subG1 phase”. For the same compound, in data set [4], the IC50 lay within 200 to 500 nM.

As for `COc1ccc(CC(=O)Nc2ccc(N(C)S(C)(=O)=O)c(OCc3cc(C)ccc3C)c2)cc1OC` [Compound 17, N-[3-(2,5-Dimethyl-benzyloxy)-4-(methanesulfonyl-methyl-amino)-phenyl]-(3,4-dimethoxyphenyl)-acetamide], the IC50 in data set [5] (Homo sapiens, SK-BR-3, 48 h, read-out: IC50 against SKBR-3 breast cancer cell growth, 48h treatment, MTT assay, six replicates) is > 30000 nM.

Regarding `Cc1ccc(C)c(COc2cc(NC(=O)Cc3ccccc3)ccc2N(C)S(C)(=O)=O)c1` [Compound 24, N-[3-(2,5-Dimethyl-benzyloxy)-4-(methanesulfonyl-methyl-amino)-phenyl]-2-phenyl-acetamide], the IC50 in data set [5] (read-out: IC50 against SKBR-3 breast cancer cell growth, 48h treatment, MTT assay, six replicates) is > 30000 nM.

What is called GI50 is the concentration at which growth is held to half of that of the control. Low readings indicate more potent growth inhibition, high ones less potent growth inhibition. Usually AUC(0-t) stands for exposure summed from dosing to a finite time, without extrapolation to infinity. A lower AUC(0-t) goes with low exposure. By MRT last is commonly meant a mean duration of stay, worked out from the concentration-time curve. The half-life is the time needed for the level to fall by half in the phase considered. Lower therefore signals fast loss.
